Earlier results on 2 compounds are cited in patent US20090269405A1, “ENZYME MEDIATED DELIVERY SYSTEM” (Appian Labs, LLC, priority 2008, published 2009).

The structures appear in SMILES notation. Where two headings read alike, the source gives them in different places.

For data set [1] the following is noted: chronic oral, 100 mg bid.

Take `C[C@H]1c2cccc(O)c2C(=O)C2=C(O)[C@]3(O)C(=O)C(C(N)=O)=C(O)[C@@H](N(C)C)[C@@H]3[C@@H](O)[C@@H]21` [doxycycline]: in data set [1], the “patients who developed abdominal aortic aneurysms” value is listed as “five out of 33”.
`CNC(=O)[C@@H](NC(=O)[C@H](CC(C)C)[C@H](O)C(=O)NO)C(C)(C)C` [Marimastat]: the “onset of musculoskeletal toxicity (severe events)” value (25 mg daily) is 199 days and the “onset of musculoskeletal toxicity (severe events)” value (75 mg twice daily) is reported as 56 days.
